The source of these data is the METLIN SMRT retention time set (Domingo-Almenara et al. 2019).

The nature of this data set: gradient 5% acetonitrile 3 min, to 50% in 2 min, to 85% in 15 min, held 3 min, 100 µL/min. The conditions noted are these: column: Zorbax Extend-C18 2.1 x 50 mm; eluents: water / acetonitrile, 0.1% formic acid. The method, boiled down:
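Retention time was recorded from adduct peaks, which were picked computationally and each inspected manually. Pure standards ran in mixtures of ~100 molecules on HPLC coupled to a quadrupole time-of-flight mass spectrometer, in positive and negative ionization mode, through a Zorbax Extend-C18 column (2.1 × 50 mm, 1.8 μm) at 100 μL/min. Eluents were water and acetonitrile, each with 0.1% formic acid.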
Consider `CCOC(=O)Cn1nc2ccc(S(=O)(=O)N3CCC(C)CC3)cn2c1=O`, for which the RP-LC retention time came to 877 s. Regarding `Cc1ncsc1CN1CCC2(CC1)c1[nH]c3ccccc3c1CCN2C`, the RP-LC retention time is 538 s. `O=C(Nc1ccc(Cl)cc1)Nc1cccn2ncnc12` registered an RP-LC retention time of 838 s. The molecule `COc1cccc(CNC(=O)Cn2c(=O)cc(-c3nc(C)no3)c3ccccc32)c1` displayed an RP-LC retention time of 806 s. Regarding `COc1cccc(CNC(=O)C2=C3CCCN3c3ccc(Cl)cc3S2(=O)=O)c1`, the RP-LC retention time is 898 s.

In turn, `CCNC(=O)c1ccc2c(c1)CCCN2S(=O)(=O)c1ccc(Cl)cc1` registered an RP-LC retention time of 887 s. Molecule `CCCN1C(=O)C2CCC(=O)N2c2ccc(C(=O)N3CCN(CC)CC3)cc21` (stereo not given) displayed an RP-LC retention time of 561 s.

Molecule `CCCS(=O)(=O)N1CCc2c(c(CN(C(C)=O)c3ccccc3)nn2C)C1` had an RP-LC retention time of 707 s.

For `Cc1sc(C)c(S(=O)(=O)NCc2ccc(F)cc2)c1-c1cc(C(F)(F)F)on1`, the RP-LC retention time was 1160 s. Consider `NS(=O)(=O)c1ccc(NC(=O)CN2C(=O)c3ccccc3C2=O)cc1`, for which the RP-LC retention time worked out at 623 s. For `O=C(c1ccc(S(=O)(=O)c2ccccc2)s1)N1CCN(c2ccccn2)CC1` the value was 652 s. Regarding `Cc1ccc(N2CCN(C(=O)c3cn4c(n3)CCCC4)CC2)cc1`, the RP-LC retention time was found to be 626 s.

Regarding `C[C@@]12N[C@@H](Cc3ccccc31)c1ccccc12`, the RP-LC retention time was 655 s. With `O=C(CC1CCN(S(=O)(=O)c2ccccc2)CC1)N1CCN(c2ccccn2)CC1`, the RP-LC retention time was found to be 625 s. As for `CCN1C(=O)CCc2cc(NC(=O)Cc3ccc(OC)cc3Cl)ccc21`, the figure is 647 s; as for `Cn1nccc1-c1cccc(-c2noc(-c3cncc(Br)c3)n2)c1`, 1100 s; as for `COc1cc(NC(=O)COc2nc(C)nc3ccccc23)cc(OC)c1OC`, 649 s. `CCc1ccccc1NC(=O)C1CCN(S(=O)(=O)c2c(C)[nH]c(C)c2C(=O)N2CCCC2)CC1` registered an RP-LC retention time of 726 s.

Molecule `Fc1cccc(-c2nnc(C(c3cccc(Cl)c3)N3CCN(c4ccccn4)CC3)o2)c1` (stereo not given) returned an RP-LC retention time of 774 s. The molecule `CCCCNC(=O)Cn1c(C)nc2onc(CC)c2c1=O` had an RP-LC retention time of 726 s. In the case of `Cn1c(=O)sc2cc(S(=O)(=O)N3CCC(C(=O)NCCc4ccccc4)CC3)ccc21`, the RP-LC retention time turned out to be 830 s. For `O=C(CCCN1C(=O)C2C3C=CC(C3)C2C1=O)N1CCN(c2ccc(F)cc2)CC1` (stereo not given) the value was 800 s; for `CCN(CC)C(=O)N1CC(Oc2cccc(-c3nc(C)no3)c2)C1`, 873 s; for `O=C(c1ccc2ccccc2n1)N1CCC(OCC2CC2)C1` (stereo not given), 832 s. `N#Cc1ccc(C(=O)NC2CCN(C(=O)N3C[C@H]4C[C@H](C3)[C@H]3CCCC(=O)N3C4)CC2)cc1` returned an RP-LC retention time of 640 s.

Take `COc1ccc(OCc2noc(CNC(=O)Nc3ccccc3F)n2)cc1`: the RP-LC retention time amounted to 804 s. As for `Cn1ncc(N2CCCC(C(=O)O)C2)cc1=O` (stereo not given), the figure is 580 s; as for `COC(=O)c1cccc(NC(=O)Nc2ccc3c(c2)N(C(=O)c2ccccc2)CC3)c1`, 921 s.

Turning to `O=C(Nc1ncc(S(=O)(=O)c2ccc([N+](=O)[O-])cc2)s1)c1ccccc1F`, the RP-LC retention time was 866 s. As for `CCN1CCN(C(=O)c2cn(-c3ccc(-c4nc(C(C)(C)C)no4)cn3)cn2)CC1`, the figure is 653 s. As to `Cc1ccc2c(c1)N(Cc1nc(-c3ccc4c(c3)OCO4)no1)C(=O)CO2`, the RP-LC retention time was found to be 1020 s. As for `CCOCCCNC(=O)Nc1ccc(CCc2nc3ccccc3[nH]2)cc1`, the figure is 598 s. Regarding `Cn1cc(CCNC(=O)Nc2ccccc2Br)c2cccnc21`, the RP-LC retention time came out at 722 s. In turn, `OCc1ncc(-c2ccccc2)s1` returned an RP-LC retention time of 762 s. Take `Cc1noc(-c2ccc(-n3ncc(C(=O)NCCC(C)C)c3C)nc2)n1`: the RP-LC retention time was found to be 943 s. Consider `CC(C)CC1OC(=O)C2=CCCCC21` (stereo not given), for which the RP-LC retention time turned out to be 1050 s. For `CCN1CCN(c2nc3cc(C(=O)OC)ccc3c(=O)n2-c2ccc(F)c(Cl)c2)CC1` the value was 655 s. `O=C(c1cc(-c2cccnc2)n[nH]1)N1CCN(C(=O)c2ccc(Br)o2)CC1` came in with an RP-LC retention time of 605 s.

Consider `O=C(Cc1csc(NC(=O)c2cnccn2)n1)NCCc1c[nH]c2ccccc12`, for which the RP-LC retention time came out at 654 s. The molecule `COc1ccc(OC)c(S(=O)(=O)N2CCCC(C(=O)NCc3ccccn3)C2)c1` (stereo not given) registered an RP-LC retention time of 615 s. For `c1cc(-c2noc(-c3ccoc3)n2)cc(N2CCCC2)n1`, the RP-LC retention time came out at 640 s. As for `O=C(NCC1CCCO1)c1cccn1Cc1noc(-c2ccccc2)n1` (stereo not given), the figure is 855 s.

The molecule `CN1C[C@@H]2C(=O)N(CCc3ccccc3)C(=O)[C@@H]2C1` came in with an RP-LC retention time of 605 s.

With `Cc1cccc(S(=O)(=O)N2CC3CN(C(=O)C(C)c4ccccc4)CC(C2)O3)c1` (stereo not given), the RP-LC retention time came out at 905 s.

Regarding `Cc1oc2ccn(C)c(=O)c2c1C(=O)NCc1ccccc1Br`, the RP-LC retention time is 914 s.

On to `CS(=O)(=O)N1CC(F)(F)C[C@H]1c1nc(-c2ccccc2)no1`, for which the RP-LC retention time was determined as 858 s. For the molecule `CCN(CCCNC(=O)C1CCN(S(=O)(=O)N2CCOCC2)CC1)c1cccc(C)c1`, the RP-LC retention time is 623 s.

In the case of `Cc1ccc(C(=O)NCCc2nc3cccnc3n2C(C)C)c(C)c1`, the RP-LC retention time was 695 s. With `Cn1cnnc1SCCNC(=O)CCc1cccc(Oc2ccc(F)cc2)c1`, the RP-LC retention time stood at 697 s. As for `Cc1ccc(S(=O)(=O)N2CCCC(C(=O)Nc3cc(-c4nc(C)cs4)sc3C)C2)cc1` (stereo not given), the figure is 1060 s. For the molecule `CC1CCCC(NC(=O)Cn2cnc3onc(-c4ccc(Cl)cc4)c3c2=O)C1C` (stereo not given), the RP-LC retention time is 1100 s. As to `Cc1ccn(-c2ccc(Nc3ccc(NC(=O)c4ccc(Br)o4)cc3)nn2)n1`, the RP-LC retention time is 776 s. As for `Cn1nc2n(c1=O)CCN(C(=O)C1CC=CCC1)CC2` (stereo not given), the figure is 624 s; as for `CCOc1ccc(C(=O)Nc2nc3c(s2)CCc2ccccc2-3)cc1`, 1200 s.

For the molecule `Cc1ccc2nc(-c3ccc(Cl)cc3)c(Nc3ccc4c(c3)OCO4)n2c1`, the RP-LC retention time was 756 s. `CCn1ccc2cc(S(=O)(=O)N3CCC(C(=O)NCCC(C)N4CCCC4)CC3)ccc21` (stereo not given) came in with an RP-LC retention time of 648 s. The molecule `CSc1ccc(CNC(=O)c2cn3cc(C)ccc3n2)cc1` yielded an RP-LC retention time of 708 s.

As for `c1csc(-c2[nH]ncc2CN2CCN(c3cnn4cnnc4c3)CC2)c1`, the RP-LC retention time is 835 s.

Turning to `COc1ccc(OCc2noc(CNS(=O)(=O)c3ccc4c(c3)CCCC4)n2)cc1`, the RP-LC retention time was determined as 968 s. Consider `COC(=O)c1ccc(NC(=O)C2c3cc(F)ccc3CCN2C(=O)OC)cc1` (stereo not given), for which the RP-LC retention time worked out at 850 s.

Molecule `CCCC(NC(=O)Cc1ccc(OC)cc1Cl)C(=O)Nc1nc2ccccc2[nH]1` (stereo not given) returned an RP-LC retention time of 730 s. As for `COc1cccc(C2CC(c3ccc(Br)cc3)=NC3(CCN(C(C)=O)CC3)N2)c1O` (stereo not given), the figure is 694 s; as for `COc1ccc(OC)c(NC(=O)C2CCCN(c3ncnc4c3nc3n4CCCCC3)C2)c1` (stereo not given), 815 s; as for `O=c1cc(CSc2nnc(-c3cccc(Cl)c3)o2)nc2sccn12`, 832 s. As for `CCC(=O)N1CCc2cc(C)c(S(=O)(=O)NC(C)C)cc21`, the RP-LC retention time came to 796 s. For `CCCN1C(=O)c2cc(S(=O)(=O)N3CCCC3)ccc2Oc2cccnc21`, the RP-LC retention time came out at 913 s. `Cc1ccc(S(=O)(=O)NC2CCN(C(=O)c3ccnn3C)CC2)cc1` came in with an RP-LC retention time of 688 s. With `CCN1C(=O)c2cccnc2Sc2cc(NC(=O)c3ccc(Cl)cc3)ccc21`, the RP-LC retention time was determined as 907 s.

As to `CC(C)CN1C(=O)c2cccn2CC1C(=O)NCC1CCCCC1` (stereo not given), the RP-LC retention time turned out to be 828 s. In the case of `Cc1nc2cc(-c3noc(-c4ccc(F)c(F)c4)n3)ccc2o1`, the RP-LC retention time was 1100 s. For `Cc1ccc(-c2csc(-n3nc(C)c(CC(=O)N4CCc5ccccc5C4)c3C)n2)cc1`, the RP-LC retention time worked out at 1310 s. As for `CCn1cc(S(=O)(=O)Nc2ccc(OC)c(Cl)c2)c2cccnc21`, the figure is 832 s; as for `CC(C)n1cnnc1CC1CCN(S(=O)(=O)Cc2ccccc2)C1` (stereo not given), 659 s.

As to `CN1C(=O)c2cccc(NC(=O)C3COc4ccccc4O3)c2C1=O` (stereo not given), the RP-LC retention time is 913 s.

`N#CC1=C(SCC(=O)Nc2nccs2)NC2=C(C(=O)CCC2)C1c1ccco1` (stereo not given) had an RP-LC retention time of 674 s. As to `CCN1CCN(CCCNC(=O)C(C)n2c3ccccc3c3cnn(C)c(=O)c32)CC1` (stereo not given), the RP-LC retention time stood at 553 s.

Turning to `CCC(c1cccs1)N1C(=O)[C@H]2CN(S(=O)(=O)c3ccc(C(C)C)cc3)C[C@H]2C1=O` (stereo not given in full), the RP-LC retention time was found to be 1140 s. On to `CCOc1ccc(NC(=O)C2CCCN(c3cnc4nccnc4c3)C2)cc1` (stereo not given), for which the RP-LC retention time stood at 689 s.

`Cc1ccc(CC(=O)Nc2cnn(C)c(=O)c2N2CCOCC2)cc1`: the RP-LC retention time came to 764 s. With `CCCn1c(=O)sc2cc(S(=O)(=O)N3CCC(C(=O)Nc4ccc(C)cc4C)CC3)ccc21`, the RP-LC retention time came to 997 s.
